Common to all, as to experiment: growth of human tumour cells (NCI), 48 h
The subject of assay [1] is COLO 205.
Assay [2] relates to DU-145.
Assay [3] relates to HCC 2998.
The test system of assay [4] is HCT-116.
Assay [5] deals with HL-60.
In assay [6] the test system is HOP-92.
The test system of assay [7] is KM12.
For assay [8], the system named is MCF7.
Assay [9] deals with MDA-MB-231.
Assay [10] deals with NCI-H23.
In assay [11] the test system is NCI/ADR-RES.
Assay [12] concerns OVCAR-3.
For assay [13], the system named is OVCAR-4.
The subject of assay [14] is OVCAR-5.
Assay [15] deals with RXF 393.
For assay [16], the system named is SNB-75.
Assay [17] deals with SW-620.
Assay [18] deals with UACC-257.
The subject of assay [19] is UO-31.
For assay [20], the system named is BT-549.

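48-hour exposure; five concentrations; linearly interpolated endpoints. Here, GI50 denotes the concentration required for 50% inhibition of growth.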 Calls of active or inactive are those of the source. Rule as the data show it: active = GI50 up to about 1.1 µM and inactive = higher.

For `N=C(N)SCc1ccc2c(c1)S(=O)(=O)c1ccccc1O2`, the GI50 in assay [1] was 29 µM (inactive); in assay [2] it was 32.4 µM (inactive); in assay [3], 22.1 µM (inactive); in assay [4], 22 µM (inactive); in assay [5] it was 14.9 µM (inactive); in assay [6] it was 15.7 µM (inactive). Besides, the GI50 in [7] is 16.9 µM (inactive); in assay [8] it was 14.5 µM (inactive); in assay [9], 39.8 µM (inactive); in [10], 19.1 µM (inactive); in [11], 39.8 µM (inactive); in [12], 17 µM (inactive). Besides, the GI50 in assay [13] was 22.3 µM (inactive); in assay [14], 22 µM (inactive); in [15], 21.2 µM (inactive); in assay [16] it was 14.6 µM (inactive); in [17], 17.8 µM (inactive); in assay [18], 16.3 µM (inactive). Moreover, the GI50 in assay [19] was 15.2 µM (inactive).
Turning to `CCCCCN1CCN(c2ncccn2)CC1`, the GI50 is > 100 µM (inactive) in assay [1]; > 100 µM (inactive) in [2]; > 100 µM (inactive) in [3]; > 100 µM (inactive) in [4]; > 100 µM (inactive) in assay [5]; 48.6 µM (inactive) in [6]. For the same compound, the GI50 in assay [7], in assay [8], in assay [9], in assay [10], in [11] and in [12] was > 100 µM (inactive) throughout. Also, the GI50 in assay [13], in [14], in assay [15], in assay [16], in assay [17] and in assay [18] was > 100 µM (inactive) each time. For the same compound, the GI50 in [19] was > 100 µM (inactive).
As to `CCc1c(OC(C)=O)c2c(NC3OC(COC(C)=O)C(OC(C)=O)C(OC(C)=O)C3OC(C)=O)nc(SC)nc2oc1=O` (stereo not drawn), the GI50 in [1], in assay [3], in assay [4], in assay [5], in assay [6] and in assay [7] was > 100 µM (inactive) each time. Moreover, the GI50 in assay [10], in assay [12], in [13], in assay [14], in assay [15] and in assay [16] was > 100 µM (inactive) in each case. For the same compound, the GI50 in assay [17], in assay [18] and in assay [19] was > 100 µM (inactive) throughout.
Take `CC(=O)Oc1ccc2c(c1)C(=O)c1nc(C)c(C)nc1C2=O`: the GI50 in assay [1] was 50 µM (inactive); in [3] it was 21.4 µM (inactive); in assay [4] it was 43.7 µM (inactive); in assay [5] it was 24.6 µM (inactive); in assay [6], > 87.1 µM (inactive); in assay [7], 59.3 µM (inactive). Further, the GI50 in assay [10] was 43.4 µM (inactive); in assay [12], 21.4 µM (inactive); in [13] it was 46.3 µM (inactive); in assay [14] it was > 100 µM (inactive); in assay [15] it was 31.8 µM (inactive); in [16], 80.4 µM (inactive). Also, the GI50 in assay [17] is 46.5 µM (inactive); in [18], 36.6 µM (inactive); in [19] it was > 74.6 µM (inactive).
In the case of `O=C1CCC[C@@H]2NC[C@@H](c3ccc4c(c3)OCO4)[C@H]12`, the GI50 in assay [1], in assay [2], in [3], in assay [4], in assay [5] and in assay [6] was > 25 µM (inactive) throughout. For the same compound, the GI50 in assay [7], in assay [8], in assay [9], in assay [10], in assay [11] and in [13] was > 25 µM (inactive) in each case. In addition, the GI50 in assay [14], in assay [15], in assay [16], in assay [18] and in assay [19] was > 25 µM (inactive) throughout.
As to `O=C(Nc1ccccc1)C(=O)C(C(=O)c1ccccc1)C(c1ccccc1)c1ccccc1` (stereo not drawn), the GI50 in assay [1], in [2], in assay [3], in assay [5], in assay [6] and in assay [8] was > 10 µM (inactive) in each case. For the same compound, the GI50 in assay [9], in assay [10], in [13], in assay [15], in [16] and in assay [17] was > 10 µM (inactive) throughout. Besides, the GI50 in assay [18] was > 10 µM (inactive).
Take `Cc1nc2c(=O)n(C)c(=O)n(C)c2o1`: the GI50 in assay [20], in assay [1], in assay [3], in assay [4], in assay [6] and in [7] was > 100 µM (inactive) each time. Further, the GI50 in assay [8] is > 10 µM (inactive); in [9], > 100 µM (inactive); in [10] it was > 100 µM (inactive); in [11], > 100 µM (inactive); in [12] it was > 100 µM (inactive); in assay [13], > 100 µM (inactive). In addition, the GI50 in assay [14], in assay [15], in [16], in assay [17], in assay [18] and in assay [19] was > 100 µM (inactive) each time.
Turning to `CC(C)(C)c1ccc2c(c1)S(=O)(=O)Nc1ccc(Cl)cc1NS(=O)(=O)c1cc(C(C)(C)C)ccc1OCCOCCOCCO2`, the GI50 in assay [1] is > 100 µM (inactive); in [3] it was > 100 µM (inactive); in [4] it was 35.9 µM (inactive); in assay [5], > 100 µM (inactive); in [6], 18.5 µM (inactive); in assay [7] it was 75 µM (inactive). Further, the GI50 in assay [10] is 32.4 µM (inactive); in assay [12], 50.6 µM (inactive); in assay [13], 5.69 µM (inactive); in assay [14], > 100 µM (inactive); in assay [15] it was 19.8 µM (inactive); in assay [16] it was 24 µM (inactive). Further, the GI50 in assay [17] is 98.9 µM (inactive); in assay [18], 55.7 µM (inactive); in [19], 53.5 µM (inactive).
For the compound `CS(=O)(=O)OCCN(CCOS(C)(=O)=O)c1ccc(/C=N/c2ccc(-c3csc(Cc4ccccc4)n3)cc2)c(Cl)c1`, the GI50 is 15.1 µM (inactive) in [1]; 30.4 µM (inactive) in assay [2]; 10.9 µM (inactive) in assay [3]; 19.5 µM (inactive) in assay [4]; 11.1 µM (inactive) in assay [5]; 0.596 µM (active) in assay [6]. Also, the GI50 in assay [7] is 28.6 µM (inactive); in [8], 2.65 µM (inactive); in assay [9], 25 µM (inactive); in assay [10], 23.5 µM (inactive); in assay [11], 23.2 µM (inactive); in [12], 17.7 µM (inactive). The GI50 in assay [13] was 31.7 µM (inactive); in assay [14] it was 5.01 µM (inactive); in assay [15], 33.7 µM (inactive); in assay [16], 15.5 µM (inactive); in assay [17], 31.8 µM (inactive); in assay [18], 3.83 µM (inactive). Moreover, the GI50 in assay [19] is 26.4 µM (inactive).
Regarding `O=C1Nc2c(Cl)cc(Cl)cc2C1=O`, the GI50 in assay [20] was 18 µM (inactive); in assay [1], 23.5 µM (inactive); in [3] it was 34.7 µM (inactive); in [4], 19.3 µM (inactive); in assay [5], 2.4 µM (inactive); in assay [6], 24.1 µM (inactive). Moreover, the GI50 in [7] is 30.5 µM (inactive); in assay [8], 18.5 µM (inactive); in [9], 21.2 µM (inactive); in assay [10], 23.5 µM (inactive); in assay [11], 19.7 µM (inactive); in assay [12], 20.3 µM (inactive). The GI50 in assay [13] is 17.8 µM (inactive); in assay [14] it was 20.7 µM (inactive); in [15], 13.6 µM (inactive); in [16], 6.03 µM (inactive); in assay [17] it was 18.5 µM (inactive); in [18] it was 18.6 µM (inactive). The GI50 in assay [19] is 19.3 µM (inactive).
Take `COc1cc(NS(C)(=O)=O)ccc1Nc1c2ccccc2nc2ccccc12` [AMSACRINE]: the GI50 in [20] was 1.04 µM (active); in [1] it was 2.86 µM (inactive); in assay [3] it was 1.24 µM (inactive); in assay [4], 0.955 µM (active); in assay [5], 0.0519 µM (active); in [6] it was 0.524 µM (active). Further, the GI50 is 1.44 µM (inactive) in assay [7]; 0.103 µM (active) in [8]; 2.41 µM (inactive) in assay [9]; 0.152 µM (active) in [10]; 3.42 µM (inactive) in assay [11]; 2.67 µM (inactive) in [12]. Besides, the GI50 in [13] is 4.05 µM (inactive); in assay [14], 1.58 µM (inactive); in [15], 1.55 µM (inactive); in assay [16] it was 0.403 µM (active); in assay [17], 0.561 µM (active); in assay [18], 2.95 µM (inactive). The GI50 in assay [19] is 0.661 µM (active).
